Results taken from the NIST ThermoML archive (doi:10.1016/j.jct.2011.06.024).

Experiment: mn = molality of the nth substance listed, in mol/kg
Details: 101 kPa, Liquid, Capillary tube (Ostwald / Ubbelohde) method

[Cl-].[Cl-].[Mg+2] [magnesium chloride] + O
viscosity [mPa·s]
Details	m1 = 0.003022	m1 = 0.004	m1 = 0.005	m1 = 0.007	m1 = 0.007995	m1 = 0.008994
303.15 K	0.8039	0.8323	0.8483	0.8693	0.8885	0.9112
308.15 K	0.7343	0.7545	0.7723	0.7896	0.8071	0.8198
313.15 K	0.6675	0.6865	0.7031	0.7195	0.7366	0.7601
318.15 K	0.6213	0.6301	0.6466	0.6648	0.6804	0.6989
323.15 K	0.5775	0.5975	0.6196	0.6244	0.6481	0.6697

O=[N+]([O-])[O-].O=[N+]([O-])[O-].[Mg+2] [magnesium nitrate] + O
viscosity [mPa·s]
Details	m1 = 0.003029	m1 = 0.004005	m1 = 0.005059	m1 = 0.007003	m1 = 0.008141	m1 = 0.009263
303.15 K	0.8036	0.8293	0.8454	0.8685	0.8903	0.9014
308.15 K	0.7327	0.751	0.7688	0.7895	0.8097	0.8156
313.15 K	0.6665	0.6847	0.7021	0.721	0.7356	0.7458
318.15 K	0.6195	0.6272	0.6449	0.6635	0.6813	0.6958
323.15 K	0.5575	0.5773	0.5927	0.6106	0.6176	0.6305

[Cl-].[K+] [potassium chloride] + O
viscosity [mPa·s]
Details	m1 = 0.003209	m1 = 0.003885	m1 = 0.004985	m1 = 0.006959	m1 = 0.008075	m1 = 0.009511
303.15 K	0.8063	0.8068	0.8076	0.8088	0.8094	0.8102
308.15 K	0.7279	0.7284	0.7292	0.7304	0.7286	0.7316
313.15 K	0.6616	0.6621	0.6629	0.6641	0.6647	0.6655
318.15 K	0.6045	0.6051	0.6059	0.6071	0.6077	0.6086
323.15 K	0.5552	0.5557	0.5566	0.5578	0.5584	0.5592

O=[N+]([O-])[O-].[K+] [potassium nitrate] + O
viscosity [mPa·s]
Details	m1 = 0.003067	m1 = 0.003997	m1 = 0.005019	m1 = 0.006997	m1 = 0.008615	m1 = 0.01033
303.15 K	0.8152	0.8175	0.819	0.8217	0.8244	0.8263
308.15 K	0.7365	0.7382	0.731	0.7433	0.7449	0.7472
313.15 K	0.6691	0.6705	0.6722	0.6752	0.6775	0.6782
318.15 K	0.6139	0.6157	0.6178	0.621	0.6231	0.6253
323.15 K	0.5658	0.568	0.5701	0.5737	0.5761	0.5785

CCCCCCCCCCCCOS(=O)(=O)[O-].[Na+] [sodium dodecyl sulfate] + O
viscosity [mPa·s]
Details	303.15 K	308.15 K	313.15 K	318.15 K	323.15 K
m1 = 0.007	0.8017	0.7228	0.6582	0.6009	0.5513
m1 = 0.01	0.8025	0.7285	0.6577	0.6026	0.5575
